We go through 6 compounds from patent publication US20080090278A1, “METHOD FOR ENHANCING STABILITY OF A COMPOSITION COMPRISING SOLUBLE GLUCOSE DEHYDROGENASE (GDH)” (TOYO BOSEKI KABUSHIKI KAISHA, priority 2006, published 2008).

Holding throughout (type): physicochemical
The subject of series [1] is recombinant FAD-GDH preparation (rAO-FAD-GDH) derived from Aspergillus oryzae. The series is described as follows: Storage stability of freeze-dried (powdered) rAO-FAD-GDH with stabilizing agents (Example 8). Conditions: for storage stabilization effect on the powdered enzyme (in words): Example 8, Tables 7 and 8; for GDH activity Residual ratio (%): 70% humidity. Here is the method: (§1) The reaction reagent (3 mL) is preliminarily heated at 37° C. for 5 minutes. The GDH solution (0.1 mL) is added and gently mixed, subsequently the change of absorbance at 600 nm is recorded for 5 minutes using the spectrophotometer controlled to 37° C. using water as the control, and the change of absorbance per one minute (ΔODTEST) is calculated from the linear portion of the record. The solvent in which GDH will be dissolved in place of the blinded GDH solution is added to the reagent mixture, and the change of absorbance (ΔODBLANK) per one minute is measured. The GDH activity is calculated from these values according to the following formula. One unit (U) in the GDH activity is defined as the amount of the enzyme which reduces […] DCPIP for one minute in the presence of 200 mM D-glucose. Activity (U/mL)=[−(ΔODTEST−ΔODBLANK)×3.0×dilution scale]/(16.3×0.1×1.0) In the above formula, 3.0 represents a liquid amount (mL) of the reaction reagent+the enzyme solution, 16.3 represents a millimolar molecular absorbance coefficient (cm^2/μmol) in the condition for measuring this enzyme, 0.1 represents the liquid amount of the enzyme solution (mL) and 1.0 represents a light path length (cm) of the cell.
The study was performed using the recombinant FAD-GDH preparation (rAO-FAD-GDH) derived from Aspergillus oryzae obtained in Example 1 in accordance with the method for measuring the FAD-GDH activity in Test Example 1 above. The amount of the protein which occupied in the FAD-GDH enzyme solution was measured, and 1 mL of the solution in which the stabilizing agent corresponding to 60% or 30% relative to this had been dissolved therein was prepared.
Several vials in which 0.2 mL of the enzyme solution containing each stabilizing agent had been correctly dispensed were prepared. As the control, the vials in which the stabilizing agent had not been added was prepared. The prepared vials were subjected to vacuum freeze-dry (FDR) to completely evaporate the water. Then, only two samples in which the same stabilizing agent had been added were subjected to the measurement of the activity. Meanwhile, the remaining vials were treated at 25° C. at a humidity of 70% for several hours, and then stored at 37° C. for one week. Subsequently, the residual activity was measured. The residual activity ratio (%) was calculated by making the average activity immediately after FDR 100% and measuring the average activity of the samples after storing at 37° C.

Series [2] relates to recombinant FAD-GDH (rAO-FAD-GDH) derived from Aspergillus oryzae. The series is described as follows: Thermal stabilization effect of stabilizing agents on rAO-FAD-GDH in solution (Examples 3-6).
Series [3] concerns recombinant FAD-GDH (rAT-FAD-GDH) derived from Aspergillus terreus. The series is described as follows: Thermal stabilization effect of stabilizing agents on rAT-FAD-GDH in solution (Example 9). As to conditions: for Residual activity ratio (%) / GLD activity value (U/ml) 50° C., 15 min: Table 10, buffer 50 mM K-PB, stabilizer at each final concentration described in Table 1; for Residual activity ratio (%): 50° C., 15 min versus 4° C.; for thermal stabilization effect on FAD-GDH (in words): rAT-FAD-GDH, 50° C. for 15 minutes, Example 9. Here is the method: as §1, with “D-glucose.” for “D-glucose. Activity (U/mL)=[−(ΔODTEST−ΔODBLANK)×3.0×dilution scale]/(16.3×0.1×1.0) In the above formula, 3.0 represents a liquid amount (mL) of the reaction reagent+the enzyme solution, 16.3 represents a millimolar molecular absorbance coefficient (cm^2/μmol) in the condition for measuring this enzyme, 0.1 represents the liquid amount of the enzyme solution (mL) and 1.0 represents a light path length (cm) of the cell.”
Two tubes in which each stabilizing agent described in Table 1 had been added at each final concentration to 0.9 mL of this enzyme solution to make the total volume 1.0 mL were prepared.
In two tubes, one tube was stored at 4° C. and another tube was treated at 50° C. for 15 minutes. Then, the FAD-GDH activity in each tube was measured. The enzyme activity in the tube stored at 4° C. was made 100, and comparing with it, the activity value after being treated at 50° C. for 15 minutes was calculated as the residual activity ratio (%).

For series [4], the system named is recombinant FAD-GDH (rAO-FAD-GDH) derived from Aspergillus oryzae. As to the kind of experiment: Thermal stabilization effect of stabilizing agents on rAO-FAD-GDH in solution (Examples 3-6). Conditions: for thermal stabilization effect on FAD-GDH (in words): rAO-FAD-GDH, 50° C. for 15 minutes, Example 3; for Residual activity ratio (%) after treatment at 50° C., 15 min: stabilizer final concentration 1%, rAO-FAD-GDH about 2 U/mL, 50 mM potassium phosphate buffer pH 5.5, 0.1% Triton X-100, 4° C. sample = 100; for GDH Residual activity ratio (%) after treatment at 50° C., 15 min: final concentration BSA 2.5%, serine 10%, alone or combined. On the procedure:
Enhancement of the thermal stability referred to herein means increasing of a residual ratio (%) of the GDH enzyme kept after giving the treatment with heat at a certain temperature for a certain time period to the composition comprising the GDH enzyme. In the present invention, the activity in the sample stored at 4° C. which is nearly completely kept is made 100%, this is compared with the activity in the GDH solution after giving the treatment with heat at a certain-temperature for a certain time period, and the residual ratio of the enzyme is calculated.
In the method for measuring the activity described in the method for measuring the GDH enzyme activity described later, an activity value (a) of GDH in the solution stored at 4° C. and an activity value (b) of GDH after giving the treatment with heat at a certain temperature for a certain time period were measured, a relative value[(b)/(a)×100] when the activity value (a) was made 100 was calculated. This relative value was made the residual ratio (%). Comparing the presence with the absence of the added compound, when the residual ratio was increased by the addition of the compound, it was determined that the thermal stability was enhanced.
In the present invention, the activity of FAD-dependent GDH is measured as follows.
The reaction-reagent is made by mixing 15.6 mL of the PIPES buffer, 0.2 mL of the DCPIP solution and 4 mL of the D-glucose solution.
as §1
The study was performed in accordance with the method for measuring the FAD-GDH activity in Test Example 1 described above.
First, 50 mL of an enzyme solution obtained by dissolving the recombinant FAD-GDH (rAO-FAD-GDH)-derived from Aspergillus oryzae obtained in Example 1 at about 2 U/mL in an enzyme dilution solution (50 mM potassium phosphate buffer, pH 5.5, 0.1% Triton X-100) was prepared. Two tubes in which each stabilizing agent described in Table 1 had been added at each final concentration to 0.9 mL of this enzyme solution to make the total volume 1.0 mL were prepared.
In two tubes, one tube was stored at […] and another tube was treated at 50° C. for 15 minutes. Then, the FAD-GDH activity in each tube was measured. The enzyme activity in the tube stored at 4° C. was made 100, and comparing with it, the activity value after being treated at 50° C. for 15 minutes was calculated as the residual activity ratio (%).
The method was in accordance with Example 3 described above.
The methods were in accordance with Example 3 above.

Where [5] appears, read: Table 4, each stabilizer at final concentration 1%, alone or in pairs.

For the compound `O.O.OC[C@H]1O[C@H](O[C@H]2O[C@H](CO)[C@@H](O)[C@H](O)[C@H]2O)[C@H](O)[C@@H](O)[C@@H]1O` [D-(+)-trehalosedihydrate], the “storage stabilization effect on the powdered enzyme (in words)” value in series [1] was “enhance the stability”. Also, in series [1] (Table 8, stabilizer 60%), the “GDH activity (U/vial) Immediately after pulverization” value was 401 U/vial and the “GDH activity (U/vial) Immediately before pulverization” value is 397 U/vial. In series [1] (Table 8, stabilizer 60%, 25° C., 7 h, then 37° C. for 1 week), the “GDH activity Residual ratio (%)” value came to 48.6%. Besides, in series [1] (Table 8, stabilizer 60%, after treatment at 70% humidity, 25° C., 7 h, then 37° C. for 1 week), the “GDH activity (U/vial) At 37° C. for 1 week” value was determined as 195 U/vial. Further, the “GDH Residual activity ratio (%) after treatment at 50° C., 30 min” value (from here on “GDH Residual activity ratio (%) … 30 min”) in series [2] (setting [5]) was 39.10%. Further, in series [2] (final concentration 0.01%), the “GDH Residual activity ratio (%) … 30 min” value amounted to 11.2%. Besides, in series [2] (final concentration 0.1%), the “GDH Residual activity ratio (%) … 30 min” value was 20.4%. In series [2] (final concentration 1%), the “GDH Residual activity ratio (%) … 30 min” value came out at 42.3%. The “thermal stabilization effect of trehalose (in words)” value in series [2] (final concentration of 0.01%, 50° C., 30 min) is given as “the stabilization effect was exerted”. Moreover, in series [3], the “Residual activity ratio (%)” value worked out at 15.8%; the “GLD activity value (U/ml) 50° C., 15 min” value came out at 0.431 U/ml; the “thermal stabilization effect on FAD-GDH (in words)” value is “high effect”. Besides, in series [4], the “thermal stabilization effect on FAD-GDH (in words)” value was “high effect” and the “Residual activity ratio (%) after treatment at 50° C., 15 min” value is listed as 64.7%.
With `N[C@@H](CO)C(=O)O` [L-serine], the “storage stabilization effect on the powdered enzyme (in words)” value in series [1] is “enhance the stability”. In series [1] (Table 7, stabilizer 60% relative to FAD-GDH protein, vacuum freeze-dry), the “GDH activity (kU/vial) Immediately after pulverization” value was found to be 19.8 kU/vial. In addition, the “GDH activity Residual ratio (%)” value in series [1] (Table 7, stabilizer 60%, 25° C., 24 h, then 37° C. for 1 week, activity immediately after FDR = 100%) was 41.3%. Also, the “GDH activity (kU/vial) After 1 week at 37° C.” value in series [1] (Table 7, stabilizer 60%, after treatment at 70% humidity, 25° C., 24 h, then 37° C. for 1 week) is 8.2 kU/vial. Also, in series [3], the “Residual activity ratio (%)” value is on record as 3.0%; the “GLD activity value (U/ml) 50° C., 15 min” value came to 0.078 U/ml; the “thermal stabilization effect on FAD-GDH (in words)” value was “high effect”. Further, the “GDH Residual activity ratio (%) after treatment at 50° C., 15 min” value in series [4] (Table 3) is recorded as 33%. Also, in series [4] (Table 3 second column), the “GDH Residual activity ratio (%) after treatment at 50° C., 15 min” value is given as 11.5%. Besides, in series [4], the “thermal stabilization effect on FAD-GDH (in words)” value is “high effect” and the “Residual activity ratio (%) after treatment at 50° C., 15 min” value was 27.0%.
As to `NCC(=O)O` [Glycine], the “GDH Residual activity ratio (%) … 30 min” value in series [2] (setting [5]) is listed as 4.84%. For the same compound, in series [3], the “Residual activity ratio (%)” value is 3.3%; the “GLD activity value (U/ml) 50° C., 15 min” value is 0.094 U/ml; the “thermal stabilization effect on FAD-GDH (in words)” value was “high effect”. In series [4], the “thermal stabilization effect on FAD-GDH (in words)” value is on record as “high effect” and the “Residual activity ratio (%) after treatment at 50° C., 15 min” value was determined as 26.4%.
On to `O=C[C@@H](O)[C@@H](O)[C@H](O)[C@H](O)CO` [D-(+)-mannose], for which the “GDH Residual activity ratio (%) … 30 min” value in series [2] (setting [5]) turned out to be 47.78%. In series [3], the “Residual activity ratio (%)” value amounted to 16.5%; the “GLD activity value (U/ml) 50° C., 15 min” value is 0.448 U/ml; the “thermal stabilization effect on FAD-GDH (in words)” value is reported as “high effect”. In addition, in series [4], the “thermal stabilization effect on FAD-GDH (in words)” value is reported as “high effect” and the “Residual activity ratio (%) after treatment at 50° C., 15 min” value came to 65.3%.
Take `O=C(CO)[C@@H](O)[C@H](O)[C@H](O)CO` [D-(−)-fructose]: in series [3], the “Residual activity ratio (%)” value was found to be 2.7%; the “GLD activity value (U/ml) 50° C., 15 min” value was determined as 0.075 U/ml; the “thermal stabilization effect on FAD-GDH (in words)” value is reported as “high effect”. In series [4], the “thermal stabilization effect on FAD-GDH (in words)” value is “high effect” and the “Residual activity ratio (%) after treatment at 50° C., 15 min” value came to 25.9%.
Regarding `N[C@@H](CC(=O)[O-])C(=O)[O-].[Na+].[Na+]` [Sodium L-aspartate], in series [3], the “Residual activity ratio (%)” value was 3.7%; the “GLD activity value (U/ml) 50° C., 15 min” value was determined as 0.102 U/ml; the “thermal stabilization effect on FAD-GDH (in words)” value is “high effect”. Also, in series [4], the “thermal stabilization effect on FAD-GDH (in words)” value was “high effect” and the “Residual activity ratio (%) after treatment at 50° C., 15 min” value stood at 23.0%.
